Measured values from patent US11952369B2 (Kadmon Corporation, LLC, priority 2022, dated 2024).
Values joined by “and” are separate entries in the source; they are usually repeats but may differ in a detail not shown here. Equal entries are not always repeated. Structures can show the parent of a compound that is named as a salt. Marks after values point to notes of the source that are not given here. Values belong to the compound of their own block, whether it stands above or below them.

Experiments:
Solubility = type: physicochemical; conditions: water
ROCK2 = target: T1, ROCK2 (Rattus norvegicus, UniProt Q62868); assay: Inhibition of ROCK2 enzymatic activity, immunoabsorbed full length enzyme, S6 kinase substrate peptide, [γ33P]ATP; type: biochemical; conditions: for Ki: ROCK2
T1 construct: Full length rat ROCK1 and ROCK2 proteins were isolated from various tumor cell lines or tissues by immunoabsorption; endogenous in cells
T1 sequence (Q62868 whole entry): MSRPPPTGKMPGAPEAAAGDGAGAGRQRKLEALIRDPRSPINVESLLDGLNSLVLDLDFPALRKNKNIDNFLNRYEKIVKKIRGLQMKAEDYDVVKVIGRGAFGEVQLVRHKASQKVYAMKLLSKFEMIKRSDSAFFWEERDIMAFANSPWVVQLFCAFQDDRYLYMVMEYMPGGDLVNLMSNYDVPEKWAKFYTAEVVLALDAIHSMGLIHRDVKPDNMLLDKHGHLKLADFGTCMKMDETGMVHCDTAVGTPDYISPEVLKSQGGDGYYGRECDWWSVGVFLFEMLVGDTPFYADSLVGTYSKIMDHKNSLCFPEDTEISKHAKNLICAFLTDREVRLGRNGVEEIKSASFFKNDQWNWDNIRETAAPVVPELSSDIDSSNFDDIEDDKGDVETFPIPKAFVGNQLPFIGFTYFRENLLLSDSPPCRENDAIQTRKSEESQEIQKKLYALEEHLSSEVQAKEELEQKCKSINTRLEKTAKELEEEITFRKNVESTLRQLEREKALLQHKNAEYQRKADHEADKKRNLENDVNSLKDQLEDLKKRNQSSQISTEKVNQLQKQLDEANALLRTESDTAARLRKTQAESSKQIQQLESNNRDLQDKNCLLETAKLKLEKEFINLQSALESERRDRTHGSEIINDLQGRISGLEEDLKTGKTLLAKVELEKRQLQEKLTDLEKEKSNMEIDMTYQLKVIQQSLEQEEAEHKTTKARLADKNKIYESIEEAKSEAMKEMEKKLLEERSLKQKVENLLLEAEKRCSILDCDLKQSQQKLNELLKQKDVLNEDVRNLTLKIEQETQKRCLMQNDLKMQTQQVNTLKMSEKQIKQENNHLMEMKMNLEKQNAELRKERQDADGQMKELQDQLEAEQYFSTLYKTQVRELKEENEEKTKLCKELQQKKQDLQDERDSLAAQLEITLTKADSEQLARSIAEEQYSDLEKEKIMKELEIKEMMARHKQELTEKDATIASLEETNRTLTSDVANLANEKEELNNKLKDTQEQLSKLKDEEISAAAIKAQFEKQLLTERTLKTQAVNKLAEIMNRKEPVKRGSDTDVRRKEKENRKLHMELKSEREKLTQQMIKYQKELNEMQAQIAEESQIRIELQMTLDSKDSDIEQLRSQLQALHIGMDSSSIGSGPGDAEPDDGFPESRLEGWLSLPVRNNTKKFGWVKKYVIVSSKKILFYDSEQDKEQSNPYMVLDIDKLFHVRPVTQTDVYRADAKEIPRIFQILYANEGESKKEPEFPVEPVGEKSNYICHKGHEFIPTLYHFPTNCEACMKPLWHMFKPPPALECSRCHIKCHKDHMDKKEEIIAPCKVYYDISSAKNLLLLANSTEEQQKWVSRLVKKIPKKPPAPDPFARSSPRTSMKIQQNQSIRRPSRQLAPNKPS
Protocol: Full length rat ROCK1 and ROCK2 proteins were isolated from various tumor cell lines or tissues by immunoabsorption to 24-well microtiter plates pre-coated with antibodies specific for each isozyme. Reactions were initiated by the addition of S6 kinase substrate peptide, [γ33P]ATP, and study drug, and incubated at 37° C. for 20 minutes. Reactions were terminated by addition of phosphoric acid and the radioactivity was quantified using standard methods.

[1] = Phase 1 study part 2: plasma and whole-blood PK after oral 200 mg [14C]-belumosudil capsule; type: in vivo, human; conditions: for F, AUCinf (bioavailability) / F, Cmax (bioavailability): oral [14C]-belumosudil 200-mg capsule vs IV [14C]-belumosudil dose of part 1; for half-life: 200 mg
Protocol: (§1) This was a single-center, nonrandomized, open-label, 2-part study in 5 healthy male subjects aged 30 to 65 years. All oral doses were administered following an overnight fast and a standard breakfast on the day of dosing.
(§2) For the mass balance and metabolic profiling study (part 2), following at least a 7-day washout from part 1, subjects received a single oral dose of a 200 mg [^14C]-belumosudil capsule containing NMT 9.8 MBq [^14C]. This level of radioactivity was selected based on human dosimetry calculations conducted by Public Health England that determined a radioactive oral dose of NMT 9.8 MBq would be necessary to permit adequate metabolite profiling of key samples. Taking the part 1 microtracer dose into account, the total committed effective dose subjects received in the study was 3 mSv, which falls within the International Commission on Radiological Protection Guidelines for Category IIb studies. Additionally, to remain within the limit for radioactive dose approved by the UK Administration of Radioactive Substances Advisory Committee, the target-specific activity of [^14C]-belumosudil was set to 90% of the threshold radioactive dosing limit.
Whole-blood samples for total radioactivity and plasma samples for metabolite pro-filing and identification were collected before dosing and 1, 4, 8, 12, 24, 48, 72, 96, 120, 144, and 168 hours after dosing. […] Whole-blood samples for total radioactivity were collected into tripotassium ethylene-diaminetetraacetic acid tubes and stored at 2 to 8° C. pending analysis. […] (metabolite profiling samples).
(§3) Total radioactivity whole-blood, plasma, and urine samples were prepared for LSC by mixing with scintillation fluid. In addition, aliquots of whole blood were solubilized with AquiGest tissue solubilization fluid and plasma samples were mixed with 10 mM of phosphate-buffered saline. Urine and fecal samples were pooled per subject by time interval before analysis. In addition, fecal samples were combusted using an automatic sample oxidizer prior to LSC. Radioactivity in all samples was measured using an LSC with automatic external standard quench correction (2300TR, 2900TR, and 3100TR Tri-Carb, Scintillation Counters; PerkinElmer, Waltham, Massachusetts), with samples counted for 4 minutes. The LLOQ was considered to be twice the background value for samples of the same type (1.39 [urine], 23.9 [feces], 35.5 [whole blood], and 30.9 [plasma] ng equivalents [free base]/g or mL).
(§4) PK parameter estimates were used to calculate absolute bioavailability and metabolite-to-parent ratio.

[2] = Phase 1 study part 2: mass balance recovery of total radioactivity in excreta; type: in vivo, human; conditions: oral 200-mg [14C]-belumosudil capsule
Protocol: as §2
Urine for total radioactivity and metabolite profiling and identification was collected before dosing (the first void of the day) and pooled from 0 to 6, 6 to 12, and 12 to 24 hours after dosing followed by daily (24-hour) collections until day 8/discharge. Urine samples were pooled per interval and stored at 2 to 8° C. pending analysis. Feces were collected from admission until before dosing and then daily (24-hour) collections until discharge. Fecal samples were pooled per time interval and stored at −20° C. pending analysis.
as §3

[3] = Phase 1 study part 1: absolute bioavailability, oral 200-mg tablet plus [14C]-belumosudil IV microtracer, plasma PK; type: in vivo, human; conditions: 100 μg IV; for half-life: iv
Protocol: as §1
(timed to occur at the expected maximum concentration [Cmax]). To determine absolute bioavailability, a microtracer dose was chosen as it negates the need for an IV formulation with good stability. Additionally, due to use of a very low dose, further nonclinical studies such as local tolerance and general toxicology studies were not warranted.
Blood samples for IV [^14C]-belumosudil PK analysis and total radioactivity were collected at −0.25, −0.16, −0.08, 0, 0.08, 0.16, 0.25, 0.5, 0.75, 1, 1.5, 2, 3, 4, 5, 6, 8, 10, 12, 22, 34, and 46 hours after the end of infusion (EOI). All samples were processed to plasma within 30 minutes of collection by centrifugation at 2000 g for 10 minutes at 4° C., and
Total [^14C]-belumosudil concentrations were determined by accelerator mass spectrometry (AMS). […] Selected samples were diluted with commercial plasma to ensure that concentrations would fall within the acceptable range for AMS analysis. The samples were converted to graphite through combustion to CO2 followed by reduction to graphite. The graphite targets were then analyzed by AMS (LLOQ of 0.00489, 0.00557, 0.00485, 0.00402, and 0.00372 ng equiv/mL for individual subjects). All ^14C data was background-corrected based on predose [^14C]-belumosudil concentrations.
Eluate fractions corresponding to [^14C]-belumosudil were collected before AMS analysis (LLOQ of 1.55 pg equiv/mL).
as §4

patients with cGVHD = conditions: cited from earlier work
[4] = arithmetic mean (standard deviation), Part 2, [14C]-belumosudil 200-mg capsule
[5] = arithmetic mean (standard deviation), Part 2
[6] = arithmetic mean (standard deviation), Part 2, total radioactivity, 200-mg capsule
[7] = geometric mean (geometric CV %), Part 2, [14C]-belumosudil 200-mg capsule
[8] = geometric mean (geometric CV %), Part 2
[9] = geometric mean (geometric CV %), Part 2, total radioactivity, 200-mg capsule
[10] = arithmetic mean (standard deviation), Part 1, [14C]-belumosudil
[11] = arithmetic mean (standard deviation), Part 1, total radioactivity
[12] = geometric mean (geometric CV %), Part 1, [14C]-belumosudil
[13] = geometric mean (geometric CV %), Part 1, total radioactivity

Structure (SMILES): CC(C)NC(=O)COc1cccc(-c2nc(Nc3ccc4[nH]ncc4c3)c3ccccc3n2)c1 [Belumosudil mesylate, 2-{3-[4-(1H-indazol-5-ylamino)-2-quinazolinyl]phenoxy}-N-(propan-2-yl) acetamide methanesulfonate (1:1)]
solubility in water (Solubility): practically insoluble in water

Ki (ROCK2): 338 ± 55 nM | inhibition of ROCK2 (Ki) relative to belumosudil (ROCK2; fold lower inhibition than belumosudil): approximately 6 fold
Structure (SMILES): O=C(O)COc1cccc(-c2nc(Nc3ccc4[nH]ncc4c3)c3ccccc3n2)c1 [KD025m2, 2-(3-(4-(1H-indazol-5-ylamino)quinazolin-2-yl)phenoxy)acetic acid]

Ki (ROCK2): 45 ± 5 nM
Structure (SMILES): CC(N)C1CCC(C(=O)Nc2ccncc2)CC1 (centres unmarked) [Y-27362]

AUCextrap [1, 4]: 3.08 (2.16) % | AUCinf [1, 4]: 8490 (2680) ng or ng equiv × h/mL | Clearanance (apparent clearance) [1, 4]: 435 (173) mL/min | F, AUCinf (bioavailability) [1, 5]: 63.8 (15.7)^b % | F, Cmax (bioavailability) [1, 5]: 63.8 (15.7)^b % | AUCextrap [1, 6]: 10.1 (2.79) % | Clearanance [1, 6]: 126 (59.7) mL/min | AUCextrap [1, 7]: 2.46 (92.9); % | AUCinf [1, 7]: 8100 (37.0); ng or ng equiv × h/mL | AUClast [1, 7]: 7850 (39.3); ng or ng equiv × h/mL | Clearanance (apparent clearance) [1, 7]: 412 (37.0); mL/min | Cmax [1, 7]: 1680 (32.1); ng or ng equiv/mL | F, AUCinf (bioavailability) [1, 8]: 62.2 (26.6)^b; % | F, Cmax (bioavailability) [1, 8]: 62.2 (26.6)^b; % | AUCextrap [1, 9]: 9.76 (31.7); % | Clearanance [1, 9]: 118 (46.1); mL/min | half-life ([1]; male, human, plasma, oral, arithmetic mean (standard deviation), Part 2, [14C]-belumosudil 200-mg capsule): 5.39 h | half-life ([1]; male, human, plasma, oral, geometric mean (geometric CV %), Part 2, [14C]-belumosudil 200-mg capsule): 5.11 h | Tmax ([1]; male, human, plasma, oral, median (min-max), Part 2 (n = 5), [14C]-belumosudil 200-mg capsule): 2 h | radioactivity recovered in excreta [2]: 88.5% | radiolabeled dose recovered in urine [2]: < 5% | total radioactivity recovered in feces [2]: 84.6% and 85% | total radioactivity recovered in feces within the first 24 hours after dosing [2]: ≈ 27.4% | total radioactivity recovered in urine within the first 24 hours after dosing [2]: 3.8% | AUCextrap [3, 10]: 0.63 (0.46) % | AUCinf [3, 10]: 6720 (2220) ng or ng equiv × h/mL | AUClast [3, 10]: 6680 (2220) ng or ng equiv × h/mL | Clearanance [3, 10]: 264 (64.3) mL/min | Cmax [3, 10]: 4530 (830) ng or ng equiv/mL | Volume [3, 10]: 138 (59.8) L | Volume, ss [3, 10]: 54.1 (10.7) L | AUCextrap [3, 11]: 8.48 (2.84) % | Clearanance [3, 11]: 122 (29.0) mL/min | Volume [3, 11]: 194 (53.2) L | AUCextrap [3, 12]: 0.53 (66.3); % | AUCinf [3, 12]: 6480 (29.3); ng or ng equiv × h/mL | AUClast [3, 12]: 6440 (29.5); ng or ng equiv × h/mL | Cmax [3, 12]: 4480 (18.0); ng or ng equiv/mL | T1/2 (terminal half-life) [3, 12]: 5.86 (35.8); h | Volume [3, 12]: 130 (38.9); L | Volume, ss [3, 12]: 53.2 (20.6); L | AUCextrap [3, 13]: 8.09 (35.4); % | Clearanance [3, 13]: 120 (23.7); mL/min | Volume [3, 13]: 186 (35.4); L | Volume, ss [3, 13]: 98.2 (23.4) L | Tmax ([3]; male, human, plasma, 100 ug, median (min-max), Part 1 (n = 5), [14C]-belumosudil): 0.25 h | half-life ([3]; male, human, plasma, 100 ug, arithmetic mean (standard deviation), Part 1, [14C]-belumosudil, read-out: T1/2 (converted)): 6.15 h | half-life ([3]; male, human, plasma, 100 ug, geometric mean (geometric CV %), Part 1, [14C]-belumosudil, read-out: T1/2 (terminal half-life) (converted)): 5.9 h
Structure (SMILES): CC(C)NC(=O)COc1cccc(-[14c]2nc(Nc3ccc4[nH]ncc4c3)c3ccccc3n2)c1 [[^14C]-Belumosudil]

Structure (SMILES): C=CC(=O)N1CCC[C@@H](n2nc(-c3ccc(Oc4ccccc4)cc3)c3c(N)ncnc32)C1 [ibrutinib]
discontinuation rate because of treatment-emergent adverse events (TEAEs) (patients with cGVHD): 43%
